Data published in the METLIN SMRT retention time set (Domingo-Almenara et al. 2019).

Assay: gradient 5% acetonitrile 3 min, to 50% in 2 min, to 85% in 15 min, held 3 min, 100 µL/min
Conditions: column: Zorbax Extend-C18 2.1 x 50 mm; eluents: water / acetonitrile, 0.1% formic acid
Method in brief: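 Standards, all pure, were combined into mixtures of ~100 molecules and run at 100 μL/min on a Zorbax Extend-C18 column (2.1 × 50 mm, 1.8 μm) with water and acetonitrile, each containing 0.1% formic acid. A coupled quadrupole time-of-flight mass spectrometer operated in positive and negative ionization mode. Retention time values come from computationally picked adduct peaks, each inspected manually.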

Row | RP-LC retention time | Structure (SMILES)
1 | 708 s | O=C1c2oc3ccccc3c(=O)c2C(c2cccnc2)N1c1nccs1 (stereo unspecified)
2 | 680 s | CCN1C(=O)NC(c2ccccc2Cl)C2=C1CN(C(C(=O)N1CCCC1)C(C)C)C2=O (stereo unspecified)
3 | 784 s | CCN(CC)C(=O)N1CC(Oc2ccccc2-c2nc(-c3cnccn3)no2)C1
4 | 870 s | CCN1C(=O)c2cccnc2Sc2cc(NC(=O)c3cccc(C)c3)ccc21
5 | 626 s | CCCS(=O)(=O)N1CC(n2cc(C(=O)N(C)C)nn2)C1
6 | 638 s | CC(C)c1ccc(N2C(=O)CC(N3CCC(C(N)=O)CC3)C2=O)cc1 (stereo unspecified)
7 | 670 s | COc1ccc(S(=O)(=O)N2CCN(c3cnn4c(C)nnc4c3)CC2)cc1
8 | 869 s | Cc1noc(C)c1-c1ccc(S(=O)(=O)NCc2cccs2)cc1
9 | 884 s | CCn1c(C)cc(O)c(C(c2ccccc2[N+](=O)[O-])c2c(O)cc(C)n(CC)c2=O)c1=O
10 | 840 s | CCCCNC(=O)C1CCCN(c2ccc(=O)n(-c3cccc(Cl)c3)n2)C1 (stereo unspecified)
11 | 1050 s | O=c1c2oc3ccccc3c2ncn1Cc1nc(-c2ccc(F)c(Cl)c2)no1
12 | 899 s | Cc1ccc(NC(=O)Cn2c(=O)n(-c3cccc(C)c3)c(=O)c3c2cc(C)n3C)cc1
13 | 884 s | Cc1cccc(C)c1-n1ccn(Cc2nc(-c3ccc(F)cc3)no2)c(=O)c1=O
14 | 679 s | Cn1cc(-c2ccncc2)cc1C(=O)N1CCN(c2cccc(Cl)c2)CC1
15 | 789 s | CC1(C(=O)NCc2ccccc2)Cn2cnc(C(=O)NCc3ccc(Cl)cc3)c2C(=O)N1C1CC1 (stereo unspecified)
16 | 1200 s | Cc1ccc(-c2nc(-c3ccc(-c4noc(CNC(=O)Cc5ccccc5)n4)cc3)cs2)s1
17 | 1080 s | CC(C)N1C(=O)C(C)(C(=O)NC2CCCCCC2)Oc2cccnc21 (stereo unspecified)
18 | 695 s | CCOC(=O)C1=CN(C)S(=O)(=O)N=C1C
19 | 869 s | CSc1ccc2c(c1)C(N1CCN(C)CC1)Cc1ccccc1S2 (stereo unspecified)
20 | 669 s | CCc1ccccc1NC(=O)NCC(c1cccnc1)c1c[nH]c2ccccc12 (stereo unspecified)
21 | 958 s | CCOC(=O)N1CCN(c2nc(F)c3c(c2F)S(=O)(=O)CCN3CC2CCCO2)CC1 (stereo unspecified)
22 | 965 s | Cc1ccc(-c2cn3c(CC(=O)N4c5ccccc5CC4C)csc3n2)cc1C (stereo unspecified)

Row | RP-LC retention time | Structure (SMILES)
23 | 744 s | Cc1noc2ncn(CC(=O)Nc3ccc(F)cc3F)c(=O)c12
24 | 803 s | Cc1ccccc1CNC(=O)CN1CCN(Cc2ccc(F)cc2)C1=O
25 | 678 s | O=C(CN1CCN(c2ccc(F)c(F)c2)C1=O)NC1CCSC1=O (stereo unspecified)
26 | 677 s | CCc1cccc(C)c1NC(=O)Cn1c(CC)nc2c(c1=O)CN(Cc1ccccc1)CC2
27 | 1270 s | CCn1c(=O)c(C)nc2cc(-c3noc(-c4ccc(Br)cc4)n3)ccc21
28 | 940 s | O=C(Cn1nc2c3cc(-c4ccccc4)nn3ccn2c1=O)N1CCCc2ccccc21
29 | 1080 s | COc1ccc(OC)c(NC(=O)Cc2cccn2-c2ccc(Cl)cc2)c1
30 | 820 s | CN(C)S(=O)(=O)c1ccc2c(c1)N(CC(=O)NCc1ccco1)C(=O)C1CCCCN21 (stereo unspecified)
31 | 856 s | CSc1ccc(NC(=O)N2C[C@@H]3C[C@H]2C[C@@H]3NS(=O)(=O)c2ccccc2)cc1
32 | 794 s | Cc1cnc(C(=O)N2CCC(F)(F)C(COCC3CC3)C2)cn1 (stereo unspecified)
33 | 1120 s | COc1ccc2c(c1)OC1(C)CC2C(S(=O)(=O)c2ccc(C(C)C)cc2)C(=O)N1C (stereo unspecified)
34 | 698 s | COc1ccccc1NC(=O)Nc1ccc2nc3n(c(=O)c2c1)CCC3
35 | 875 s | CCOC(=O)c1c(S(=O)(=O)N2CCC(C(=O)Nc3cccc(C)c3)CC2)c(C)n(C)c1C
36 | 722 s | C[C@H](NC[C@H](O)CP(=O)(O)Cc1ccccc1)c1ccc(Cl)c(Cl)c1
37 | 634 s | CC1CCN(CCCNC(=O)c2nc(CCS(=O)(=O)c3ccc(F)cc3)no2)CC1
38 | 846 s | O=C(NCC1CCCCC1)c1cccc(CN2C(=O)C3CCCN3C(=O)c3ccccc32)c1 (stereo unspecified)
39 | 601 s | COc1ccc(NC(=O)c2cnc(N3CCN(C(C)=O)CC3)nc2N)cc1
40 | 1160 s | Cc1cccc(Cn2nc(-c3nc(-c4ccc(F)cc4)no3)ccc2=O)c1
41 | 771 s | COc1cc([C@@H]2c3cc4c(cc3[C@H](O)[C@@H](CO)[C@@H]2C(=O)N2CCc3ccccc32)OCO4)cc(OC)c1OC
42 | 1230 s | CCc1ccc(NS(=O)(=O)c2cc(-c3cc(C(F)(F)F)on3)sc2C)cc1
43 | 772 s | CC1CCN(S(=O)(=O)c2cc(-c3ccc(=O)[nH]n3)cs2)CC1
44 | 893 s | COc1ccc(OC)c(NS(=O)(=O)c2ccc(-c3nnc(C4CCC4)o3)o2)c1

Row | RP-LC retention time | Structure (SMILES)
45 | 1120 s | Cc1ccc(Nc2nc(-c3ccc(I)cc3)cs2)cc1C
46 | 601 s | O=C(c1ccc([N+](=O)[O-])o1)N1CCN(Cc2csc(-c3ccccc3)n2)CC1
47 | 609 s | O=C(NC1CCCC1)C1(CCO)CCN(Cc2ccccc2)C1 (stereo unspecified)
48 | 597 s | CCCOc1cc(N2CCN(C(=O)CC(C)C)CC2)nc(C)n1
49 | 823 s | COc1ccccc1-c1noc(C2CCCN2C(=O)Nc2cccc(C#N)c2)n1 (stereo unspecified)
50 | 1000 s | Cc1cc(C)cc(NS(=O)(=O)c2ccc3c(c2)C(=O)N(C)c2ncccc2O3)c1
51 | 738 s | CC(=O)c1ccc(NC(=O)Cn2cnc3nc4c(cc3c2=O)CC(C)CC4)cc1 (stereo unspecified)
52 | 677 s | COc1ccccc1NC(=O)N1C[C@@H](F)C[C@H]1C(=O)N1CCCCC1
53 | 995 s | CCOc1ccccc1CNS(=O)(=O)c1ccc(-c2c(C)noc2C)cc1
54 | 707 s | N#Cc1ccc(O[C@@H]2c3ccccc3C[C@H]2N2CCC[C@@H](N)C2)c(Cl)c1
55 | 1200 s | Cc1ccc2c(c1)N(Cc1nc(-c3ccc(F)c(Cl)c3)no1)C(=O)CO2
56 | 866 s | NC(=O)c1c(NC(=O)C2CCCN(C(=O)C3CCCC3)C2)sc2c1CCCC2 (stereo unspecified)
57 | 963 s | COC(=O)c1cc(S(=O)(=O)N2CCCC2C(=O)Nc2cccc(Br)c2)cn1C (stereo unspecified)
58 | 693 s | Cc1ccc(C)c(NC(=O)N2CC(c3nc(C)no3)C3(CCOCC3)C2)c1 (stereo unspecified)
59 | 886 s | O=C(NCc1csc(-c2ccccc2)n1)C1CCN(S(=O)(=O)c2cccc3nsnc23)CC1
60 | 1020 s | O=C(NCc1ccccc1)NC1CCN(c2nc3cccnc3n(Cc3ccccc3)c2=O)CC1
61 | 768 s | CCCCN(C)C(=O)C1CCC(=O)N(c2cc(OC)c(OC)c(OC)c2)C1c1ccc(OC)cc1 (stereo unspecified)
62 | 755 s | CN1C(=O)CCc2cc(NC(=O)Cc3ccccc3Cl)ccc21
63 | 779 s | CSc1cccc(NC(=O)N2CCC(N3CCN(Cc4cccc(F)c4)C(=O)C3=O)CC2)c1
64 | 595 s | CCOc1ccccc1CN1C[C@@H]2C(=O)N(C)C(=O)[C@@H]2C1
65 | 884 s | O=C(CCc1nc2ccccc2n(CC(=O)Nc2cc(F)ccc2F)c1=O)NCc1ccccc1
66 | 649 s | NC(=O)c1c(N)c(C(=O)c2cccc([N+](=O)[O-])c2)n2ccccc12

Row | RP-LC retention time | Structure (SMILES)
67 | 672 s | Cc1cc(C)c(CN2CCC(N3CCN(Cc4nc(C)no4)C3=O)C2)c(C)c1 (stereo unspecified)
68 | 1270 s | CCc1nc2cc(-c3noc(COc4ccccc4C)n3)ccc2o1
69 | 554 s | Cc1cc(NC(=O)CSc2nncn2C)no1
70 | 1280 s | Cc1cc(C)cc(C(=O)NC2(c3nc(-c4ccccc4)no3)CCCCC2)c1
71 | 772 s | COc1cc(N)c(Cl)cc1C(=O)N[C@@H]1CCN(CCCOc2ccc(F)cc2)C[C@@H]1OC
72 | 1100 s | COC(=O)c1ccc2c(=O)n(-c3ccc(C)c(F)c3)c(N3CCSCC3)nc2c1
73 | 694 s | Cc1cc(NC(=O)CN(C)CCC#N)nc2c1c(=O)oc1ccccc12
74 | 733 s | Oc1ccc(-c2nc3ccc(Cl)cn3c2Nc2ccc(Cl)cc2)cc1
75 | 819 s | CN(C(=O)C(=O)Nc1ccc2nc3n(c(=O)c2c1)CCCCC3)c1cccc(C(F)(F)F)c1
76 | 895 s | C=CCn1c(SCC(=O)NCC2CCCO2)nc2scc(-c3ccc(C)o3)c2c1=O (stereo unspecified)
77 | 703 s | COc1ccc(Cl)cc1NC(=O)C1c2cc(OC)c(OC)cc2C(=O)N(C)C1c1cccnc1 (stereo unspecified)
78 | 686 s | CC(C)CN(Cc1ccccc1)Cc1cc(=O)n2cc(Cl)ccc2n1
79 | 630 s | Cc1noc(C)c1CC(=O)N(C)C1CCc2nn(CC3CC3)c(=O)n2CC1 (stereo unspecified)
80 | 614 s | O=C(NCCN1CCCCC1)C1CCN(c2cnn(Cc3ccccc3)c(=O)c2)CC1
81 | 1230 s | Cc1ccc(-c2nnc(-c3nn(C)c4c3CN(S(=O)(=O)c3ccc(CC(C)C)cc3)CC4)o2)cc1
82 | 693 s | COC(=O)c1ccc2c(=O)n(-c3ccccc3)c(N3CCC(C(N)=O)CC3)nc2c1
83 | 568 s | Cc1ccnc(N2CCC(C(=O)NCCCN3CCCC(C)C3)CC2)n1 (stereo unspecified)
84 | 864 s | O=C(NC1CCN(c2cc(-c3ccc(F)cc3)[nH]n2)C1)c1ccc(Br)cc1 (stereo unspecified)
85 | 815 s | O=C(Cn1nc2c(Oc3cccc(F)c3)nccn2c1=O)Nc1ccccc1F

Row | Structure (SMILES) | RP-LC retention time
86 | CCOc1ccc(CNC(=O)CN2CC=C(c3cnn(-c4ccccc4)c3)CC2)cc1OCC | 746 s
